Source: US8871767B2, “2-arylimidazo[1,2-B]pyridazine, 2-phenylimidazo[1,2-A]pyridine, and 2-phenylimidazo[1,2-A]pyrazine derivatives” (Hengrui (USA) Ltd., priority 2010, dated 2014)
Like-named read-outs stand apart in the source and are kept apart here.

How the values were obtained:
[1] = system: Hedgehog pathway activation (GLi-luciferase reporter) in Shh Light II reporter cells; experiment: Hedgehog pathway activation on Shh Light II reporter cells measured by luciferase activity; type: cell-based; conditions: Mus musculus, Shh Light II
Summary of the method: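 Shh Light II reporter cells carrying a hedgehog-responsive GLi-luciferase reporter were stimulated either with 500 nM SAG, a direct Smoothened agonist, or with conditioned media containing human Sonic Hedgehog (hShh). Test compounds were evaluated for blocking this pathway activation, quantified by luciferase activity. Cell viability was monitored in parallel with the Celltiter-Blue® assay.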

[2] = system: Hedgehog pathway activation on 10T1/2/Smo#3 cells (C3H10T1/2 cells transfected with human Smoothened receptor); experiment: Hedgehog pathway activation on 10T1/2/Smo#3 cells measured by ALP activity; type: cell-based; conditions: Mus musculus, C3H 10T1/2, 10T1/2/Smo#3 cells
Summary of the method: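 Inhibition of alkaline phosphatase induction, read fluorometrically from 4-methylumbelliferyl phosphate conversion, gave IC50 values; CellTiter-Blue tracked viability in parallel. Cells were the human Smo-transfected 10T1/2/Smo#3 pool, stimulated by 10-20% hShh conditioned medium or the Smo agonist SAG (500 nM).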

[3] = hShh activation, read-out: Shh (IC50, inhibition of Hedgehog pathway activation)
[4] = measured by ALP activity, read-out: ALP (IC50, inhibition of Hedgehog pathway activation)
[5] = SAG activation (500 nM SAG), read-out: Shh Light II luciferase activity (SAG activation)
[6] = hShh activation, read-out: Shh Light II luciferase activity (hShh activation)
[7] = hShh activation, ALP activity, read-out: 10T1/2/Smo#3 ALP activity (hShh Activation)

Compound | IC50 [1, 3] [nM] | IC50 [2, 4] [nM] | IC50 [1, 5] [nM] | IC50 [1, 6] [nM] | IC50 [2, 7] [nM]
O=C(Nc1cc(-c2cn3nc(-c4cccnc4C(F)(F)F)ccc3n2)ccc1Cl)C1CC1 [Example 676, N-(2-chloro-5-(6-(2-(trifluoromethyl)pyridin-3-yl)imidazo[1,2-b]pyridazin-2-yl)phenyl)cyclopropanecarboxamide] | 111 | 721 |  |  | 
Cc1ccc(-c2cn3nc(-c4cccc(F)c4C(F)(F)F)ccc3n2)cc1NC(=O)C(C)(C)C [Example 395, N-(5-(6-(3-fluoro-2-(trifluoromethyl)phenyl)imidazo[1,2-b]pyridazin-2-yl)-2-methylphenyl)pivalamide] | 15 | 87 |  |  | 
CC(C)(C)C(=O)Nc1cc(-c2cn3nc(N4CC[C@@H](O)C4)ccc3n2)ccc1Cl [Example 643, (R)—N-(2-chloro-5-(6-(3-hydroxypyrrolidin-1-yl)imidazo[1,2-b]pyridazin-2-yl)phenyl)pivalamide] | 146 | 23 |  |  | 
CCOC(=O)CCCCCCOc1cccc(-c2ccc3nc(-c4ccc(C)c(NC(=O)C(C)(C)C)c4)cn3n2)c1C(F)(F)F [Example 423, ethyl 7-(3-(2-(4-methyl-3-pivalamidophenyl)imidazo[1,2-b]pyridazin-6-yl)-2-(trifluoromethyl)phenoxy)heptanoate] | 1560 | 265 |  |  | 
COc1ccc2nc(-c3ccc(C)c(NC(=O)C(C)(C)C)c3)c(-c3ccc(F)cc3)n2n1 [Example 114, N-(5-(3-(4-fluorophenyl)-6-methoxyimidazo[1,2-b]pyridazin-2-yl)-2-methylphenyl)pivalamide] | 7660 | > 10000 | 3000 to 30000 | 3000 to 30000 | 3000 to 30000
COc1ccc2nc(-c3ccc(Cl)c(NC(=O)CC(C)C(F)(F)F)c3)cn2n1 (stereo not shown) [Example 120, N-(2-chloro-5-(6-methoxyimidazo[1,2-b]pyridazin-2-yl)phenyl)-4,4,4-trifluoro-3-methylbutanamide] | > 10000 | 6280 |  |  | 
CC(C)(C(=O)Nc1cc(-c2cn3nc(-c4cccnc4C(F)(F)F)ccc3n2)c(F)cc1Cl)C(F)(F)F [Example 660, N-(2-chloro-4-fluoro-5-(6-(2-(trifluoromethyl)pyridin-3-yl)imidazo[1,2-b]pyridazin-2-yl)phenyl)-3,3,3-trifluoro-2,2-dimethylpropanamide] | 32 | 17 |  |  | 
COc1ccccc1-c1ccc2nc(-c3ccc(C(F)(F)F)c(NC(=O)C(C)(C)C)c3)cn2n1 [Example 172, N-(5-(6-(2-methoxyphenyl)imidazo[1,2-b]pyridazin-2-yl)-2-(trifluoromethyl)phenyl)pivalamide] | 936 | 403 |  |  | 
O=C(Nc1cc(-c2cn3nc(-c4cccnc4C(F)(F)F)ccc3n2)ccc1Cl)NC1CC1 [Example 654, 1-(2-chloro-5-(6-(2-(trifluoromethyl)pyridin-3-yl)imidazo[1,2-b]pyridazin-2-yl)phenyl)-3-cyclopropylurea] | 228 | 764 |  |  | 
O=S(=O)(NC1CC1)c1cc(-c2cn3nc(-c4cccnc4C(F)(F)F)ccc3n2)ccc1Cl [Example 702, 2-chloro-N-cyclopropyl-5-(6-(2-(trifluoromethyl)pyridin-3-yl)imidazo[1,2-b]pyridazin-2-yl)benzenesulfonamide] | 3980 | > 10000 |  |  | 
CCc1ccc(-c2cn3nc(-c4cccnc4C(F)(F)F)ccc3n2)cc1NC(=O)C1CCCCC1 [Example 687, N-(2-ethyl-5-(6-(2-(trifluoromethyl)pyridin-3-yl)imidazo[1,2-b]pyridazin-2-yl)phenyl)cyclohexanecarboxamide] | 463 | 1590 |  |  | 
Cc1ccc(-c2cn3nc(N4CCC(C(N)=NO)CC4)ccc3n2)cc1NC(=O)C(C)(C)C [compound 566] | 285 | 371 |  |  | 
CC(C)(C)C(=O)Nc1cc(-c2cn3nc(N4CC[C@@H](O)C4)ccc3n2)ccc1C(F)(F)F [Example 341, (R)-N-(5-(6-(3-hydroxypyrrolidin-1-yl)imidazo[1,2-b]pyridazin-2-yl)-2-(trifluoromethyl)phenyl)pivalamide] | 123 | 109 |  |  | 
CC(=O)Nc1ccccc1-c1ccc2nc(-c3ccc(C)c(NC(=O)C(C)(C)C)c3)cn2n1 [Example 289, N-(5-(6-(2-acetamidophenyl)imidazo[1,2-b]pyridazin-2-yl)-2-methylphenyl)pivalamide] | 284 | 90 |  |  | 
Cc1ccncc1-c1ccc2nc(-c3ccc(C(F)(F)F)c(NC(=O)C(C)(C)C)c3)cn2n1 [Example 383, N-(5-(6-(4-methylpyridin-3-yl)imidazo[1,2-b]pyridazin-2-yl)-2-(trifluoromethyl)phenyl)pivalamide] | 193 | 141 |  |  | 
Cc1ccc(-c2cn3nc(-c4ccc(NC(=O)CCCCC(=O)NO)cc4C(F)(F)F)ccc3n2)cc1NC(=O)C(C)(C)C [compound 531] | 586 | 1140 |  |  | 
CC(C)(C)C(=O)Nc1cc(-c2cn3nc(N4CCS(=O)(=O)CC4)ccc3n2)ccc1C(F)(F)F [Example 287, N-{5-[6-(1,1-dioxidothiomorpholin-4-yl)imidazo[1,2-b]pyridazin-2-yl]-2-(trifluoromethyl)phenyl}-2,2-dimethylpropanamide] | 491 | 462 |  |  | 
CCCCS(=O)(=O)c1ccc2nc(-c3ccc(C)c(NC(=O)C(C)(C)C)c3)cn2n1 [Example 130, N-(5-(6-(butylsulfonyl)imidazo[1,2-b]pyridazin-2-yl)-2-methylphenyl)pivalamide] | 898 | 526 | < 300 | 300 to 3000 | 300 to 3000
Cc1ccc(-c2cn3nc(-c4cccnc4C(F)(F)F)ccc3n2)cc1NC(=O)NC1CC1 [Example 651, 1-cyclopropyl-3-(2-methyl-5-(6-(2-(trifluoromethyl)pyridin-3-yl)imidazo[1,2-b]pyridazin-2-yl)phenyl)urea] | 139 | 127 |  |  | 
COc1ccc2nc(-c3ccc(Cl)c(NC(=O)C4CCCC4)c3)cn2n1 [Example 112, N-(2-chloro-5-(6-methoxyimidazo[1,2-b]pyridazin-2-yl)phenyl)cyclopentanecarboxamide] | > 10000 | 9520 |  |  | 
Cc1c(-c2ccccc2)nc2ccc(N3CCN(C(=O)NC4CCCCC4)CC3)nn12 [Example 159, N-cyclohexyl-4-(3-methyl-2-phenylimidazo[1,2-b]pyridazin-6-yl)piperazine-1-carboxamide] | 440 | 435 |  |  | 
CCc1ccc(-c2cn3nc(-c4ccccc4C#N)ccc3n2)cc1NC(=O)C(C)(C)C [Example 296, N-(5-(6-(2-cyanophenyl)imidazo[1,2-b]pyridazin-2-yl)-2-ethylphenyl)pivalamide] | 311 | 226 |  |  | 
COc1ccc2nc(-c3ccc(C)c(NC(=O)c4cccc(C(F)(F)F)c4)c3)cn2n1 [Example 100, N-(5-(6-methoxyimidazo[1,2-b]pyridazin-2-yl)-2-methylphenyl)-3-(trifluoromethyl)benzamide] | 1090 | 1060 |  |  | 
COc1ccc2nc(-c3ccc(C)c(NC(=O)C(C)(C)C)c3)cn2n1 [Example 4, N-(5-(6-methoxyimidazo[1,2-b]pyridazin-2-yl)-2-methylphenyl)pivalamide] |  |  | 300 to 3000 | 3000 to 30000 | 300 to 3000
CC1CN(C(=N)N)CCN1c1ccc2nc(-c3ccc(C(F)(F)F)c(NC(=O)C(C)(C)C)c3)cn2n1 (stereo not shown) [compound 571] | 129 | 554 |  |  | 
COc1ccc2nc(-c3ccc(C)c(NC(=O)c4ccccc4)c3)cn2n1 [Example 97, N-(5-(6-methoxyimidazo[1,2-b]pyridazin-2-yl)-2-methylphenyl)benzamide] | 679 | 1120 |  |  | 
CN(C)c1ccc2nc(-c3ccc(C(F)(F)F)c(NC(=O)C(C)(C)C)c3)cn2n1 [Example 138, N-(5-(6-(dimethylamino)imidazo[1,2-b]pyridazin-2-yl)-2-(trifluoromethyl)phenyl)pivalamide] | 3450 | 2170 |  |  | 
Cc1ccc(-c2cn3nc(-c4cccnc4C(F)(F)F)ccc3n2)cc1NC(=O)C1(C)CC1 [compound 518, 1-methyl-N-(2-methyl-5-(6-(2-(trifluoromethyl)pyridin-3-yl)imidazo[1,2-b]pyridazin-2-yl)phenyl)cyclopropanecarboxamide] | 16 | 71 | < 300 | < 300 | < 300
CC(C)(C)C(=O)Nc1cc(-c2cn3cc(-c4cc(C(F)(F)F)ccc4F)ccc3n2)ccc1C(F)(F)F [Example 84, N-(5-(6-(2-fluoro-5-(trifluoromethyl)phenyl)imidazo[1,2-a]pyridin-2-yl)-2-(trifluoromethyl)phenyl)pivalamide] | 1580 | 2490 |  |  | 
COc1cccc(-c2ccc3nc(-c4ccc(C(F)(F)F)c(NC(=O)C(C)(C)C)c4)cn3n2)n1 [Example 147, N-(5-(6-(6-methoxypyridin-2-yl)imidazo[1,2-b]pyridazin-2-yl)-2-(trifluoromethyl)phenyl)pivalamide] | 1040 | > 10000 |  |  | 
